Drawing on patent publication US10744128B2, “6-(5-membered heteroaryl)isoquinolin-3-yl-(5-membered heteroaryl) carboxamides and preparation and use thereof” (Samumed, LLC, priority 2017, dated 2020), this text covers EC50 and inhibition for twelve compounds.

Read-outs that look alike come from different tables or passages of the source.

The target of one experiment is recombinant GSK3β kinase (Homo sapiens (Human), UniProt P49841). Kind of experiment: GSK3β kinase assay (Ser/Thr 09 peptide Z-lyte, FRET). The format is biochemical.
In a further experiment the test system is IL-6. Nature of the experiment: IL-6 inhibition in LPS-stimulated human peripheral blood mononuclear cells (HTRF). To be noted: for EC50: huPBMCs, LPS 50 ng/mL, 22 hours, IL-6 HTRF. The format is cell-based. Here is the method: Fresh Normal PB MNC (Catalog # PB001, AllCells, Alameda, Calif.) were shipped overnight at 4° C. and resuspended in Roswell Park Memorial Institute (RPMI) 1640 Medium, with GlutaMAX Supplement (Catalog #61870127, ThermoFisher Scientific, Waltham, Mass.) supplemented with 1% Penicillin-Streptomycin (Catalog #15140163, ThermoFisher Scientific, Waltham, Mass.) and 1% fetal bovine serum (FBS) (Catalog #16140089, ThermoFisher Scientific, Waltham, Mass.) assay media.
Fresh normal human peripheral blood mononuclear cells (huPBMCs) were resuspended in 1% FBS-RPMI assay media with 1% Penicillin-Streptomycin 1% to a cell concentration of 1×10e6 cells/mL. […] 50 ng/mL of Lipopolysaccharides from Escherichia coli 0111:B4 (Catalog #L5293-2ML, Sigma-Aldrich, St. Louis, Mo.) was added after 2 hours and cells were incubated for another 22 hours at 37° C.-5% CO2. After 22 hour incubation, a mixture of anti-IL6 XL665 and anti-IL-6 Cryptate diluted in reconstitution buffer (Catalog #62IL6PEC, Cisbio Inc., Bedford, Mass.) was added to each well. Following incubation for 3 hours at room temperature, Homogeneous Time-Resolved Fluorescence (HTRF) was measured using the Envision (Perkin Elmer, Shelton, Conn.) at 665 nm and […]. The ratio of fluorescence at 665 nm to 620 nm was used as a readout for IL-6 quantification. All samples were processed in duplicate. Readings were normalized to DMSO treated cells and normalized activities were utilized for EC50 calculations. EC50 was determined using software generated by Dotmatics Limited (Windhill Bishops Stortford Herts, UK) using the Levenberg-Marquardt 4 parameter fitting procedure with finite different gradients.
(In TR-FRET formats the signal depends on donor and acceptor labels being close together.)

Experiment [1] relates to Wnt-responsive promoter (Sp5-Luc reporter) in SW480 colon carcinoma cells. Nature of the experiment: Sp5-Luc reporter gene screening assay for Wnt activity in SW480 cells. The format is cell-based, human. As to conditions: 36 to 48 hours, luminescence. The text has this:
The screening assay for Wnt activity is described as follows. Reporter cell lines can be generated by stably transducing cancer cell lines (e.g., colon cancer) or primary cells (e.g., IEC-6 intestinal cells) with a lentiviral construct that includes a Wnt-responsive promoter driving expression of the firefly luciferase gene.
SW480 colon carcinoma cells were transduced with a lentiviral vector expressing luciferase with a human Sp5 promoter consisting of a sequence of eight TCF/LEF binding sites. SW480 cells stably expressing the Sp5-Luc reporter gene and a hygromycin resistance gene were selected by treatment with 150 μg/mL of hygromycin for 7 days. These stably transduced SW480 cells were expanded in cell culture and used for all further screening activities. […] For Sp5-Luc reporter gene assays, the cells were plated at 4,000 cells/well in 384-well plates with a DMEM medium containing 1% fetal bovine serum, and 1% Penicillin-Streptomycin and incubated for 36 to 48 hours at 37° C. and 5% CO2. Following incubation, 15 μl of BriteLite Plus luminescence reagent (Perkin Elmer) was added to each well of the 384-well assay plates. The plates were placed on an orbital shaker for 2 min and then luminescence was quantified using the Envision (Perkin Elmer) plate reader. Readings were normalized to DMSO only treated cells, and normalized activities were utilized for EC50 calculations using the dose-response log (inhibitor) vs. response −variable slope (four parameters) nonlinear regression feature available in GraphPad Prism 5.0 (or Dotmatics).
A general note: A reporter such as luciferase makes a cellular process visible.

Experiment [2] deals with primary human fibroblasts derived from IPF patients (LL29 cells), α-smooth muscle actin. Nature of the experiment: Inhibition of fibrotic process: αSMA in TGF-β1 treated LL29 fibroblasts. To be noted: for EC50: LL29 cells, TGF-β1 20 ng/mL, 4 days, % cells positive for αSMA. The format is cell-based. Here is the method:
Representative compounds were screened using primary human fibroblasts (derived from IPF patients) treated with TGF-β1 to determine their ability to inhibit the fibrotic process.
LL29 cells were plated at 1,500 cells/well in 70 μL/well F12 medium supplemented with 1% Fetal Bovine Serum. […] Wells treated with TGF-β1 and containing DMSO were used as positive control, and cells with only DMSO were negative control. […] Following incubation for 4 days, SYTOX green nucleic acid stain (Life Technologies [Thermo Fisher Scientific]) was added to the wells at a final concentration of 1 μM and incubated at room temperature for 30 min.

For experiment [3], the system named is SW480 colon carcinoma cells. Kind of experiment: Cell viability assay (CellTiter-Glo) in SW480 cells. To be noted: four days. The format is cell-based, human. Here is the method: SW480 colon carcinoma cells were transduced with a lentiviral vector expressing luciferase with a human Sp5 promoter consisting of a sequence of eight TCF/LEF binding sites. SW480 cells stably expressing the Sp5-Luc reporter gene and a hygromycin resistance gene were selected by treatment with 150 µg/mL of hygromycin for 7 days. These stably transduced SW480 cells were expanded in cell culture and used for all further screening activities.
For the Cell Viability Assays, the cells were plated at 2,000 cells/well in 384-well plates with a DMEM medium containing 1% fetal bovine serum, and 1% Penicillin-Streptomycin and incubated for […] at 37° C. and 5% CO2. Eight replicates of DMSO-treated cells served as controls and cells treated with compound were performed in duplicate.
After incubation, 10 μL of CellTiter-Glo (Promega) was added to each well allowed to incubate for approximately 12 minutes. This reagent “results in cell lysis and generation of a luminescent signal proportional to the amount of ATP present. The amount of ATP is directly proportional to the number of cells present in culture, in agreement with previous reports. The CellTiter-Glo® Assay generates a “glow-type” luminescent signal, produced by the luciferase reaction (Promega.com)”.
In general terms: Cellular ATP, detected with luciferase, serves as a proxy for viable cell number.

For experiment [4], the target named is recombinant DYRK1A kinase (Homo sapiens (Human), UniProt Q13627). Nature of the experiment: DYRK1A kinase assay (Ser/Thr 18 peptide Z-lyte, FRET).
The mark [5] stands for this setting: GSK3β kinase, 46 μM ATP, one hour, method calls values IC50.
[6] abbreviates: DYRK1A kinase, 30 μM ATP, one hour, method calls values IC50.

Chain of recombinant GSK3β kinase (P49841 whole entry): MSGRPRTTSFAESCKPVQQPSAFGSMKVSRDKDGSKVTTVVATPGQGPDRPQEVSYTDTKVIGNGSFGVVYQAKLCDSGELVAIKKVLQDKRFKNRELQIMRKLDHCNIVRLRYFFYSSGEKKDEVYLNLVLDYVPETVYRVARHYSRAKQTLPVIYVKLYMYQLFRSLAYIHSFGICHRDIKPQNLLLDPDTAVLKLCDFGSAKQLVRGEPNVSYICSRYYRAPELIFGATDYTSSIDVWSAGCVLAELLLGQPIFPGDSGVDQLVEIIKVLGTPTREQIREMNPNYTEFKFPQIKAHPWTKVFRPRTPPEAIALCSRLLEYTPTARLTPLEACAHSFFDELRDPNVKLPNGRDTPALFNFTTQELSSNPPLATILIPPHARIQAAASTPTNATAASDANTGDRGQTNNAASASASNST

In general, EC50 refers to the concentration that produces a half-maximal response. Regarding “2-(1-Isopropylpiperidin-4-yl)-N-(6-(1-methyl-1H-pyrazol-4-yl)isoquinolin-3-yl)thiazole-4-carboxamide [Compound 39]”, the EC50 at recombinant GSK3β kinase (setting [5]) worked out at 3710 nM; with IL-6, 7590 nM; in experiment [1], 70 nM; in experiment [2], 3040 nM; in experiment [3] it was 1190 nM; in experiment [4] (setting [6]), 26 nM.
For the compound `CC(C)n1cc(C(=O)Nc2cc3cc(-c4cnn(C5CCN(C)CC5)c4)ccc3cn2)cn1` [Compound 1, 1-Isopropyl-N-(6-(1-(1-methylpiperidin-4-yl)-1H-pyrazol-4-yl)isoquinolin-3-yl)-1H-pyrazole-4-carboxamide], the EC50 was determined as 9990 nM on recombinant GSK3β kinase (setting [5]); 3440 nM with IL-6 (Homo sapiens, PBMC); 387 nM in experiment [1] (Homo sapiens); 953 nM in experiment [2] (Homo sapiens, Fibroblast, 96 h); 608 nM in experiment [3] (Homo sapiens, 96 h); 39 nM in experiment [4] (setting [6]).
For `[2H]C([2H])([2H])n1cc(-c2ccc3cnc(NC(=O)c4cnn(C5CCNCC5)c4)cc3c2)cn1` [Compound 3, N-(6-(1-(Methyl-d3)-1H-pyrazol-4-yl)isoquinolin-3-yl)-1-(piperidin-4-yl)-1H-pyrazole-4-carboxamide], the EC50 at recombinant GSK3β kinase is above 10000 nM; in the experiment on IL-6 (Homo sapiens, PBMC), 1040 nM; in experiment [1] (Homo sapiens), 23 nM; in experiment [2] (Homo sapiens, Fibroblast, 96 h), 74 nM; in experiment [3] (Homo sapiens, 96 h), 38 nM; in experiment [4] it was 3 nM.
In the case of `CN1CCC(n2cc(C(=O)Nc3cc4cc(-c5cnn(C)c5)ccc4cn3)cn2)CC1` [Compound 4, N-(6-(1-Methyl-1H-pyrazol-4-yl)isoquinolin-3-yl)-1-(1-methylpiperidin-4-yl)-1H-pyrazole-4-carboxamide], the EC50 turned out to be 1480 nM at recombinant GSK3β kinase (setting [5]); 89 nM with IL-6 (Homo sapiens, PBMC); 14 nM in experiment [1] (Homo sapiens); 94 nM in experiment [2] (Homo sapiens, Fibroblast, 96 h); 35 nM in experiment [3] (Homo sapiens, 96 h); 2 nM in experiment [4] (setting [6]).
On to `[2H]C([2H])([2H])n1cc(-c2ccc3cnc(NC(=O)c4cnn(C5CCN(C)CC5)c4)cc3c2)cn1` [Compound 5, N-(6-(1-(Methyl-d3)-1H-pyrazol-4-yl)isoquinolin-3-yl)-1-(1-methylpiperidin-4-yl)-1H-pyrazole-4-carboxamide], for which the EC50 at recombinant GSK3β kinase was 2060 nM; with IL-6 (Homo sapiens, PBMC), 218 nM; in experiment [1] (Homo sapiens), 22 nM; in experiment [2] (Homo sapiens, Fibroblast, 96 h) it was 84 nM; in experiment [3] (Homo sapiens, 96 h), 34 nM; in experiment [4], 2 nM.
As to `CCN1CCC(n2cc(C(=O)Nc3cc4cc(-c5cnn(C)c5)ccc4cn3)cn2)CC1` [Compound 6, 1-(1-Ethylpiperidin-4-yl)-N-(6-(1-methyl-1H-pyrazol-4-yl)isoquinolin-3-yl)-1H-pyrazole-4-carboxamide], the EC50 at recombinant GSK3β kinase (setting [5]) came out at 1700 nM; with IL-6 (Homo sapiens, PBMC), 129 nM; in experiment [1] (Homo sapiens) it was 15 nM; in experiment [2] (Homo sapiens, Fibroblast, 96 h) it was 69 nM; in experiment [3] (Homo sapiens, 96 h), 32 nM; in experiment [4] (setting [6]) it was 3 nM.
As for `Cn1cc(-c2ccc3cnc(NC(=O)c4cnn(C5CCN(CCF)CC5)c4)cc3c2)cn1` [Compound 7, 1-(1-(2-Fluoroethyl)piperidin-4-yl)-N-(6-(1-methyl-1H-pyrazol-4-yl)isoquinolin-3-yl)-1H-pyrazole-4-carboxamide], the EC50 at recombinant GSK3β kinase (setting [5]) is 1500 nM; in the experiment with IL-6 (Homo sapiens, PBMC) it was 145 nM; in experiment [1] (Homo sapiens) it was 35 nM; in experiment [2] (Homo sapiens, Fibroblast, 96 h), 47 nM; in experiment [3] (Homo sapiens, 96 h) it was 77 nM; in experiment [4] (setting [6]), 3 nM.
The term inhibition denotes the drop in the measured response relative to a control, in per cent. Turning to `Cn1cc(-c2ccc3cnc(NC(=O)c4cnn(C5CCN(C6CC6)CC5)c4)cc3c2)cn1` [Compound 9, 1-(1-cyclopropylpiperidin-4-yl)-N-(6-(1-methyl-1H-pyrazol-4-yl)isoquinolin-3-yl)-1H-pyrazole-4-carboxamide], the EC50 at recombinant GSK3β kinase (setting [5]) is 1660 nM; in the experiment with IL-6 (Homo sapiens, PBMC), 1100 nM; in experiment [1] (Homo sapiens) it was 39 nM; in experiment [2] (Homo sapiens, Fibroblast, 96 h) it was above 10000 nM; in experiment [3] (Homo sapiens, 96 h) it was 104 nM; in experiment [4] (setting [6]), 2 nM. For the same compound, the inhibition at 10 µM in experiment [2] (Homo sapiens, Fibroblast, read-out: percent inhibition at 10 μM) was 33.4%.
In the case of `Cn1cc(-c2ccc3cnc(NC(=O)c4cn(C5CCNCC5)nn4)cc3c2)cn1` [Compound 11, N-(6-(1-Methyl-1H-pyrazol-4-yl)isoquinolin-3-yl)-1-(piperidin-4-yl)-1H-1,2,3-triazole-4-carboxamide], the EC50 amounted to 9990 nM at recombinant GSK3β kinase (setting [5]); 2630 nM in the experiment with IL-6 (Homo sapiens, PBMC); 607 nM in experiment [2] (Homo sapiens, Fibroblast, 96 h); 273 nM in experiment [3] (Homo sapiens, 96 h); 7 nM in experiment [4] (setting [6]).
As for `CN1CCC(n2cc(C(=O)Nc3cc4cc(-c5cnn(C)c5)ccc4cn3)nn2)CC1` [Compound 12, N-(6-(1-Methyl-1H-pyrazol-4-yl)isoquinolin-3-yl)-1-(1-methylpiperidin-4-yl)-1H-1,2,3-triazole-4-carboxamide], the EC50 at recombinant GSK3β kinase (setting [5]) was found to be 3630 nM; in the experiment on IL-6 (Homo sapiens, PBMC), 3750 nM; in experiment [1] (Homo sapiens), 105 nM; in experiment [2] (Homo sapiens, Fibroblast, 96 h), 983 nM; in experiment [3] (Homo sapiens, 96 h) it was 470 nM; in experiment [4] (setting [6]) it was 9 nM.
`Cn1cc(-c2ccc3cnc(NC(=O)c4cn(C5CCN(CCF)CC5)nn4)cc3c2)cn1` [Compound 13, 1-(1-(2-Fluoroethyl)piperidin-4-yl)-N-(6-(1-methyl-1H-pyrazol-4-yl)isoquinolin-3-yl)-1H-1,2,3-triazole-4-carboxamide]: the EC50 came out at 2080 nM on recombinant GSK3β kinase (setting [5]); 3390 nM in the experiment with IL-6 (Homo sapiens, PBMC); 120 nM in experiment [1] (Homo sapiens); 260 nM in experiment [2] (Homo sapiens, Fibroblast, 96 h); 485 nM in experiment [3] (Homo sapiens, 96 h); 5 nM in experiment [4] (setting [6]).
`Cn1cc(-c2ccc3cnc(NC(=O)c4coc(C5CCN(CCF)CC5)n4)cc3c2)cn1` [Compound 21, 2-(1-(2-Fluoroethyl)piperidin-4-yl)-N-(6-(1-methyl-1H-pyrazol-4-yl)isoquinolin-3-yl)oxazole-4-carboxamide]: the EC50 on recombinant GSK3β kinase (setting [5]) was 1330 nM; in the experiment with IL-6 (Homo sapiens, PBMC), above 10000 nM; in experiment [2] (Homo sapiens, Fibroblast, 96 h) it was 9620 nM; in experiment [3] (Homo sapiens, 96 h) it was 1260 nM; in experiment [4] (setting [6]), 16 nM. Further, the inhibition at 10 µM with IL-6 (Homo sapiens, PBMC, read-out: percent inhibition at 10 μM) was found to be 27.2%.
